Measured values taken from US20240398828A1, “HETERO-ATOM CONTAINING COMPOUNDS AND USES THEREOF” (Kumquat Biosciences Inc., priority 2021, published 2024).

What was measured:
[1] = target: T1, PTPN2 (i.e., TC-PTP) (Homo sapiens, UniProt P17706); test: Phosphatase activity assay (DiFMUP substrate), PTPN2; format: biochemical; details: compounds binned ≤1 uM or >1 uM
T1 sequence (P17706 1-415): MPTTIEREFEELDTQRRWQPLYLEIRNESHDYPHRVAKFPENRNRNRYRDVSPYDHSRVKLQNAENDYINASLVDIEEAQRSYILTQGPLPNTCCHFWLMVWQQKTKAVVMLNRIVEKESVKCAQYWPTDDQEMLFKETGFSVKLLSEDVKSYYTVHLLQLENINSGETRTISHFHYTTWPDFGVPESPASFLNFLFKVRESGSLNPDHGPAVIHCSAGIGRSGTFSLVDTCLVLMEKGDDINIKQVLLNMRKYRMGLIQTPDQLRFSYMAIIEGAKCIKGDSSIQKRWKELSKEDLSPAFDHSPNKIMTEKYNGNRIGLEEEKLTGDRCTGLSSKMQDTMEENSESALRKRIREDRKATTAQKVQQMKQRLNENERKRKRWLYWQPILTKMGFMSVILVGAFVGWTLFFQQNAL
In short: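 RT, HEPES pH 7.5 buffer with DTT/Tween-20. 10-point inhibitor series premixed ~2 min with enzyme (PTPN2 0.025 ng/ul). Start with DiFMUP at enzyme Km (~45 μM for PTPN2). Read DiFMU ex360/em450 continuously 15–30 min; initial rate vs concentration, 4-parameter fit → IC50.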

[2] = target: T2, PTPN1 (i.e., PTP1B) (Homo sapiens, UniProt P18031); test: Phosphatase activity assay (DiFMUP substrate), PTP1B; format: biochemical; details: compounds binned ≤1 uM or >1 uM
T2 sequence (P18031 1-435): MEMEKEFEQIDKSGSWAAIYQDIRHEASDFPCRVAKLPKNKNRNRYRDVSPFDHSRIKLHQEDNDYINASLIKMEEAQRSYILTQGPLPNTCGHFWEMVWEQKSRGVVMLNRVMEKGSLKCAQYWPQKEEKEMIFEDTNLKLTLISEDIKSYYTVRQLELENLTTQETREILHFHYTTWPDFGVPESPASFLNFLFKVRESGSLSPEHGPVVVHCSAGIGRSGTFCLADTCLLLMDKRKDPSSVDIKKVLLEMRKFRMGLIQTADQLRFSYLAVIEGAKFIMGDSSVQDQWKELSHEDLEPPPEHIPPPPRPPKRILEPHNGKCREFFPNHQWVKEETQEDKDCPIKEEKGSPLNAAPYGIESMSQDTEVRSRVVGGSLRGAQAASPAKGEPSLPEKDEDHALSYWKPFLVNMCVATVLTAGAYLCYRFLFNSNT
In short: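 Read-out is continuous fluorescence of DiFMU (360 nm excitation, 450 nm emission) over about 15-30 minutes, with DiFMUP substrate at the enzyme's independently determined Km (PTPN2 approx. 45 μM final). Buffer: 50 mM HEPES pH 7.5, 150 mM NaCl, 0.5 mM EDTA, 1 mM DTT, 0.001% Tween-20, room temperature; initial rates versus 10-point dilution fitted for IC50, at least duplicate.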

SMILES	IC50 [1] [nM]	IC50 [2] [nM]
O=C1CN(c2c(O)ccc(C3=CCN(CCC(F)F)C3)c2F)S(=O)(=O)N1 [Compound 534, 5-(3-(1-(3,3-difluoropropyl)-2,5-dihydro-1H-pyrrol-3-yl)-2-fluoro-6-hydroxyphenyl)-1,2,5-thiadiazolidin-3-one 1,1-dioxide]	≤ 1000	≤ 1000
CC(C)CCNC1CCN(c2ccc(O)c(N3CC(=O)NS3(=O)=O)c2F)C1 (stereo not drawn) [Compound 163, 5-(2-fluoro-6-hydroxy-3-(3-(isopentylamino)pyrrolidin-1-yl)phenyl)-1,2,5-thiadiazolidin-3-one 1,1-dioxide]	≤ 1000	≤ 1000
O=C1CN(c2c(O)ccc(-c3cc(C#CC4CC4)n[nH]3)c2F)S(=O)(=O)N1 [Compound 352, 5-(3-(3-(cyclopropylethynyl)-1H-pyrazol-5-yl)-2-fluoro-6-hydroxyphenyl)-1,2,5-thiadiazolidin-3-one 1,1-dioxide]	≤ 1000	≤ 1000
Cc1ccccc1-n1cnc(-c2ccc(O)c(N3CC(=O)NS3(=O)=O)c2F)c1 [Compound 418, 5-(2-fluoro-6-hydroxy-3-(1-(o-tolyl)-1H-imidazol-4-yl)phenyl)-1,2,5-thiadiazolidin-3-one 1,1-dioxide]	≤ 1000	≤ 1000
COCC1CCCN1c1cc(-c2ccc(O)c(N3CC(=O)NS3(=O)=O)c2F)[nH]n1 (stereo not drawn) [Compound 372, 5-(2-fluoro-6-hydroxy-3-(3-(2-(methoxymethyl)pyrrolidin-1-yl)-1H-pyrazol-5-yl)phenyl)-1,2,5-thiadiazolidin-3-one 1,1-dioxide]	≤ 1000	≤ 1000
O=C1CN(c2c(O)ccc(-c3cnn(C4CCCOC4)c3)c2F)S(=O)(=O)N1 (stereo not drawn) [Compound 351, 5-(2-fluoro-6-hydroxy-3-(1-(tetrahydro-2H-pyran-3-yl)-1H-pyrazol-4-yl)phenyl)-1,2,5-thiadiazolidin-3-one 1,1-dioxide]	≤ 1000	≤ 1000
COC(=O)n1nc(-c2ccc(O)c(N3CC(=O)NS3(=O)=O)c2F)cc1C1CC1 [Compound 536, methyl 5-cyclopropyl-3-(3-(1,1-dioxido-4-oxo-1,2,5-thiadiazolidin-2-yl)-2-fluoro-4-hydroxyphenyl)-1H-pyrazole-1-carboxylate]	≤ 1000	≤ 1000
Cn1cc(-c2ccc(O)c(N3CC(=O)NS3(=O)=O)c2F)cc1CCC1CC1 [Compound 392, 5-(3-(5-(2-cyclopropylethyl)-1-methyl-1H-pyrrol-3-yl)-2-fluoro-6-hydroxyphenyl)-1,2,5-thiadiazolidin-3-one 1,1-dioxide]	≤ 1000	≤ 1000
O=C1CN(c2c(Cl)ccc(-c3cc(C4CC4)n[nH]3)c2F)S(=O)(=O)N1 [Compound 487, 5-(6-chloro-3-(3-cyclopropyl-1H-pyrazol-5-yl)-2-fluorophenyl)-1,2,5-thiadiazolidin-3-one 1,1-dioxide]	> 1000	≤ 1000
Cn1cnc(-c2ccc(O)c(N3CC(=O)NS3(=O)=O)c2F)c1 [Compound 115]	≤ 1000	≤ 1000
O=C1CN(c2c(O)ccc(-c3cnn(C4CCCOCC4)c3)c2F)S(=O)(=O)N1 (stereo not drawn) [Compound 456, 5-(2-fluoro-6-hydroxy-3-(1-(oxepan-4-yl)-1H-pyrazol-4-yl)phenyl)-1,2,5-thiadiazolidin-3-one 1,1-dioxide]	≤ 1000	≤ 1000
COc1cc(-c2ccc(O)c(N3CC(=O)NS3(=O)=O)c2F)ccn1 [Compound 107, 5-(2-fluoro-6-hydroxy-3-(2-methoxypyridin-4-yl)phenyl)-1,2,5-thiadiazolidin-3-one 1,1-dioxide]	≤ 1000	≤ 1000
CC(C)CCc1cnc(-c2ccc(O)c(N3CC(=O)NS3(=O)=O)c2F)[nH]1 [Compound 262, 5-(2-fluoro-6-hydroxy-3-(5-isopentyl-1H-imidazol-2-yl)phenyl)-1,2,5-thiadiazolidin-3-one 1,1-dioxide]	≤ 1000	≤ 1000
N=C(N)N1CCC=C(c2ccc(O)c(N3CC(=O)NS3(=O)=O)c2F)C1 [Compound 499, 5-(3-(1,1-dioxido-4-oxo-1,2,5-thiadiazolidin-2-yl)-2-fluoro-4-hydroxyphenyl)-3,6-dihydropyridine-1(2H)-carboximidamide]	≤ 1000	≤ 1000
O=C1CN(c2c(O)ccc(-c3cc(N4CCC5(CCN5)C4)n[nH]3)c2F)S(=O)(=O)N1 (stereo not drawn) [Compound 396, 5-(3-(3-(1,6-diazaspiro[3.4]octan-6-yl)-1H-pyrazol-5-yl)-2-fluoro-6-hydroxyphenyl)-1,2,5-thiadiazolidin-3-one 1,1-dioxide]	≤ 1000	≤ 1000
Cc1nsc(-c2ccc(O)c(N3CC(=O)NS3(=O)=O)c2F)n1 [Compound 425, 5-(2-fluoro-6-hydroxy-3-(3-methyl-1,2,4-thiadiazol-5-yl)phenyl)-1,2,5-thiadiazolidin-3-one 1,1-dioxide]	≤ 1000	≤ 1000
O=C1CN(c2c(O)ccc(-c3cnn(CCC4CCCOC4)c3)c2F)S(=O)(=O)N1 (stereo not drawn) [Compound 154, 5-(2-fluoro-6-hydroxy-3-(1-(2-(tetrahydro-2H-pyran-3-yl)ethyl)-1H-pyrazol-4-yl)phenyl)-1,2,5-thiadiazolidin-3-one 1,1-dioxide]	≤ 1000	≤ 1000
CS(=O)(=O)NC1CC=C(c2ccc(O)c(N3CC(=O)NS3(=O)=O)c2F)CC1 (stereo not drawn) [Compound 363, N-(3′-(1,1-dioxido-4-oxo-1,2,5-thiadiazolidin-2-yl)-2′-fluoro-4′-hydroxy-2,3,4,5-tetrahydro-[1,1′-biphenyl]-4-yl)methanesulfonamide]	≤ 1000	≤ 1000
COc1ncc(-c2ccc(O)c(N3CC(=O)NS3(=O)=O)c2F)cn1 [Compound 118, 5-(2-fluoro-6-hydroxy-3-(2-methoxypyrimidin-5-yl)phenyl)-1,2,5-thiadiazolidin-3-one 1,1-dioxide]	≤ 1000	≤ 1000
N#Cc1ccc(-c2ccc(O)c(N3CC(=O)NS3(=O)=O)c2F)cn1 [Compound 144, 5-(3-(1,1-dioxido-4-oxo-1,2,5-thiadiazolidin-2-yl)-2-fluoro-4-hydroxyphenyl)picolinonitrile]	≤ 1000	≤ 1000
O=C1CN(c2c(O)ccc(-c3cn(CC4CCCCC4)cn3)c2F)S(=O)(=O)N1 [Compound 453, 5-(3-(1-(cyclohexylmethyl)-1H-imidazol-4-yl)-2-fluoro-6-hydroxyphenyl)-1,2,5-thiadiazolidin-3-one 1,1-dioxide]	≤ 1000	≤ 1000
O=C1CN(c2c(O)ccc(-c3cnn(C4CC5CCC(C4)N5C(=O)C4CC4)c3)c2F)S(=O)(=O)N1 (stereo not drawn) [Compound 411, 5-(3-(1-(8-(cyclopropanecarbonyl)-8-azabicyclo[3.2.1]octan-3-yl)-1H-pyrazol-4-yl)-2-fluoro-6-hydroxyphenyl)-1,2,5-thiadiazolidin-3-one 1,1-dioxide]	≤ 1000	≤ 1000
CS(=O)(=O)Nc1ccc(-c2ccc(O)c(N3CC(=O)NS3(=O)=O)c2F)cc1 [Compound 236, N-(3′-(1,1-dioxido-4-oxo-1,2,5-thiadiazolidin-2-yl)-2′-fluoro-4′-hydroxy-[1,1′-biphenyl]-4-yl)methanesulfonamide]	≤ 1000	≤ 1000
CCC(CC)n1cnc(-c2ccc(O)c(N3CC(=O)NS3(=O)=O)c2F)c1 [Compound 350, 5-(2-fluoro-6-hydroxy-3-(1-(pentan-3-yl)-1H-imidazol-4-yl)phenyl)-1,2,5-thiadiazolidin-3-one 1,1-dioxide]	≤ 1000	≤ 1000
O=C1CN(c2c(O)ccc(-c3cnn(Cc4cncnc4)c3)c2F)S(=O)(=O)N1 [Compound 197, 5-(2-fluoro-6-hydroxy-3-(1-(pyrimidin-5-ylmethyl)-1H-pyrazol-4-yl)phenyl)-1,2,5-thiadiazolidin-3-one 1,1-dioxide]	≤ 1000	≤ 1000
CC(C)CCCc1cc(-c2ccc(O)c(N3CC(=O)NS3(=O)=O)c2F)[nH]n1 [Compound 290, 5-(2-fluoro-6-hydroxy-3-(3-(4-methylpentyl)-1H-pyrazol-5-yl)phenyl)-1,2,5-thiadiazolidin-3-one 1,1-dioxide]	≤ 1000	≤ 1000
CN1CCC(Nc2cccc(-c3ccc(O)c(N4CC(=O)NS4(=O)=O)c3F)c2)CC1 [Compound 225, 5-(2-fluoro-4-hydroxy-3′-((1-methylpiperidin-4-yl)amino)-[1,1′-biphenyl]-3-yl)-1,2,5-thiadiazolidin-3-one 1,1-dioxide]	≤ 1000	≤ 1000
